Results as given in US9220705B2, “Method of treating colorectal cancer” (priority 2013, dated 2015).
“Also recorded” adds a separate entry of the source. Read-outs that look alike come from different tables or passages of the source.

What was measured:
[1] = test system: LoVo-OXP colorectal adenocarcinoma xenografts; assay: In vivo anticancer activity, oxaliplatin-resistant colorectal xenograft; design: species or system BALB/c nu/nu mice; details: LoVo-OXP xenograft mice, day 14 to day 30; FIG. 5 panel B
Protocol: (§1) LoVo and LoVo-OXP tumor xenografts were established in 6-week-old BALB/c nu/nu mice by injecting 1×10^7 tumor cells subcutaneously (100 μL in serum free medium) on the left dorsal flank. After 24 h from tumor implantation, mice were randomly divided into five groups (6 animals per group, 8 controls). Chemotherapy was delayed until the tumor became palpable (day 14). From day 14, 1 was dosed daily at 3 mg/kg ip whereas OXP was dosed daily at 2 mg/kg ip. Measurements of body weights and tumor volumes were recorded every 2 days until the experimental endpoint. The long axis (L) and the short axis (S) were measured with caliper, and the tumor volume (V) was calculated using the following equation: V=S×S×L/2. At day 30, animals were sacrificed, and the inhibition of tumor growth was determined by comparing the volume of the control group and the treatment group expressed as % referred to the control animals.
(§2) All the values are the means±S.D. of not less than three measurements. Multiple comparisons were made by Tukey-Kramer test (**p<0.01; *p<0.05).

[2] = test system: 2008/C13*, LoVo/LoVo-OXP, LoVo MDR; assay: MTT cytotoxicity, comparison over the Table 2 cell lines; assay type: cell-based, human; details: 2008 ovarian and LoVo colon sensitive cells
Protocol: (§3) After 24 h, the medium was removed and replaced with a fresh one containing the compound to be studied, at the appropriate concentration, dissolved in 0.9% sodium chloride solution just before use. Triplicate cultures were established for each treatment. After 72 h, each well was treated with […] of a 5 mg mL^−1 MTT saline solution and, after 5 h of incubation, 100 μL of a sodium dodecylsulfate (SDS) solution in 0.01 M HCl were added. After an overnight incubation, the inhibition of cell growth induced by the tested complexes was determined by measuring the absorbance of each well at 570 nm using a BioRad 680 microplate reader. Mean absorbance for each drug dose was expressed as percentage of the control and plotted vs. drug concentration. Dose-response curves were fitted and IC50 values were calculated with four parameter logistic model (4PL).
A LoVo cell line retaining a multidrug resistance phenotype was also considered (LoVo MDR). Cross-resistance profiles were evaluated by means of the resistance factor (RF), which is defined as the ratio between the IC50 value for the resistant cells and that arising from the sensitive cells (Table 2).

[3] = test system: LoVo colorectal adenocarcinoma xenografts; assay: In vivo anticancer activity, oxaliplatin-sensitive colorectal xenograft; design: species or system BALB/c nu/nu mice; details: LoVo xenograft mice, day 14 to day 30; FIG. 5 panel A
Protocol: as §1, §2

[4] = test system: Lewis lung carcinoma (LLC); assay: In vivo anticancer activity toward Lewis lung carcinoma; design: species or system C57BL mice; details: LLC-bearing mice
Protocol: All studies involving animal testing were carried out in accordance with the ethical guidelines for animal research adopted by the University of Padua, acknowledging the Italian regulation and the European Directive 86/609/EEC as to animal welfare and protection and the related codes of practice. The mice were purchased from Charles River, Italy, and housed in steel cages under controlled environmental conditions (constant temperature, humidity, and 12 h dark/light cycle) and alimented with commercial standard feed and tap water ad libitum. Animals were observed daily, and body weight and food intake recorded. The Lewis lung carcinoma (LLC) cell line was purchased from ECACC, UK. The LLC cell line was maintained in D-MEM (Euroclone) supplemented with 10% heat-inactivated FBS (Euroclone), 10 mM L-glutamine, 100 U mL^−1 penicillin, and 100 μg mL^−1 streptomycin in a 5% CO2 air incubator at 37° C.
The Lewis lung carcinoma (LLC) was implanted i.m. as a 2×10^6 cell inoculum into the right hind leg of 8-week old male and female C57BL mice (24±3 g body weight). […] At day 15, animals were sacrificed, the legs were amputated at the proximal end of the femur, and the inhibition of tumor growth was determined according to the difference in weight of the tumor-bearing leg and the healthy leg of the animals expressed as % referred to the control animals. Body weight was measured every two days and was taken as a parameter for systemic toxicity.
All the values are the means±S.D. of not less than three measurements. Multiple comparisons were made by Tukey-Kramer test (**p<0.01; *p or °p<0.05).
The in vivo antitumor activity of compound 1 was evaluated in a model of solid tumor, the syngeneic murine Lewis lung carcinoma (LLC). […] For the assessment of the adverse side effects, changes in body weights of tumor-bearing mice were monitored daily (FIG. 3).

[5] = Aqueous solubility; assay type: physicochemical; details: compared to compound 2
[6] = assay type: physicochemical
Excerpt: Lipophilicity is usually expressed in terms of n-octanol/water partition coefficient, log Po/w, and correlates with cellular uptake by passive diffusion (Liu, X., et al., Pharm. Res. 2011, 28, 962-977).
Since RP-HPLC retention is due to partitioning between mobile (polar) and stationary (apolar) phases, there is a good correlation between capacity factor k′ (k′=(tR−t0)/t0, where t0 is the retention time for an unretained compound and tR is the retention time of the analyte) and partition coefficient (log Po/w=a+b log k′). Thus the HPLC procedure represents a good alternative to the time- and material-consuming shake-flask method. […] This implies that there are specific import (CTR1, OCT, etc.) or export (ATP7B) mechanisms which operate selectively on the different types of complexes.

[7] = test system: human ovarian A2780 cancer cell line; details: Kasparkova 2010; cited from earlier work
[8] = test system: panel of human tumor cell lines (A431, MCF-7, A375, HCT-15, SW480, CaCo-2, DLD-1); assay: MTT cytotoxicity, comparison over the Table 1 panel; assay type: cell-based; details: average over seven cell lines of Table 1
Protocol: as §3
The cytotoxicity was evaluated by means of the MTT test for 72 h treatment with increasing concentrations of the tested compounds.

[9] = literature values; cited from earlier work
[10] = test system: LoVo-OXP cells; assay: Cellular platinum uptake by GF-AAS; assay type: cell-based, human; details: LoVo-OXP resistant cells, 5 μM, 6, 24, 48 h, FIG. 2 panel B, compared with LoVo
Protocol: LoVo and LoVo-OXP cells (2×10^6) were seeded in 75 cm^2 flasks in growth medium (20 ml). After 24 h, the medium was replaced and the cells incubated for different times (6, 24 or 48 h) in the presence of the tested complexes. Cell monolayers were washed twice with cold PBS and harvested. Samples were subjected to three freezing/thawing cycles at −80° C., and then vigorously vortexed. Aliquots were removed for the determination of protein content by the BioRad protein assay (BioRad). The samples were treated with 1 mL of highly pure nitric acid (Pt: ≦0.01 μg×kg^−1, TraceSELECT® Ultra, Sigma Chemical Co.) and transferred into a microwave teflon vessel. Subsequently, samples were submitted to a standard procedure using a speed wave MWS-3 Berghof instrument (Eningen, Germany). After cooling, each mineralized sample was analyzed for platinum by using a Varian AA Duo graphite furnace atomic absorption spectrometer (Varian, Palo Alto, Calif.; USA) at the wavelength of […]. The calibration curve was obtained using known concentrations of standard solutions purchased from Sigma Chemical Co.
It is well-known that cellular uptake is an important factor influencing drug efficacy. […] The intracellular platinum was quantified by means of GF-AAS analysis and the results, expressed as μg metal mg^−1 of cellular proteins, are summarized in FIG. 2.

SMILES	body weight loss [1]	cytotoxic activity towards sensitive lines compared with reference drugs [2]	body weight loss [3]	body weight loss compared with cisplatin ([4]; 1.5 mg kg^−1 each, FIG. 3)	tolerability compared with cisplatin ([4]; daily i.p.)	adverse side effects (body weight loss) compared with cisplatin ([4]; compound 1 at 3 mg kg^−1, FIG. 3)	aqueous solubility [5]	log Po/w [6]	cytotoxicity, fold greater than cisplatin [7]	average cytotoxic activity compared with reference drugs [8]	log Po/w [9]	intracellular platinum accumulation [10]
[Cl][Pt]1([Cl])[NH]C2CCC(CC2)[NH]1 [Compound 1, [SP-4-2-(cis)]-dichloro(1,4-cyclohexanediamine-N,N′)platinum]	roughly equivalent to that obtained by using the parent drug oxaliplatin	as good as oxaliplatin and better than cisplatin	roughly equivalent to that obtained by using the parent drug oxaliplatin	about half that caused by cisplatin	better tolerated than cisplatin	smaller adverse side effects than cisplatin	enhanced aqueous solubility compared to compound 2	−1.57±0.10	3.4-5.4	slightly more effective than oxaliplatin		
[Cl][Pt]1([Cl])[NH][C@@H]2CCCC[C@H]2[NH]1 [Compound 2, [SP-4-2]-dichloro[(1R,2R)-1,2-cyclohexanediamine-N^1,N^2]platinum]											−1.40	remarkably decreased; also recorded: decreases remarkably
